Test results published in US6673937B2, “Syntheses and methods of use of new antimitotic agents” (The University of Pittsburgh, priority 2000, dated 2004).
Read-outs that look alike come from different tables or passages of the source.

What was measured:
[1] = test system: MCF-7 cells; experiment: Antiproliferative assay, MCF-7 cells; type: cell-based; conditions: read-out: MCF-7 50% cell growth inhibition
Protocol: Two widely used human breast cancer cell lines were evaluated for sensitivity to the cytotoxic effects of the naphthoquinone spiroketals. MCF-7 cells were originally derived from an adenocarcinoma of the breast and retain several characteristics of differentiated mamnmary epithelium including the ability to process estradiol via cytoplasmic estrogen receptors. MCF-7 cells express the tumor suppressor gene product p53, which is required for the programmed cell death or apoptosis caused by many agents. (Foster, B. A.; Coffey, H. A.; Morin, M. J.; Rastinejad, F. Science 1999, 286, 2507).
The proliferation of MCF-7, MDA-MB-231 and SV40 transformed mouse embryonic fibroblasts was measured by a previously described colorimetric assay (Wipf P, Jung J-K, Rodriguez S, Lazo JS Synthesis and biological evaluation of Deoxypreussomerin A and Palmarumycin CP 1 and related naphthoquinone spiroketals. Tetrahedron 57:283-296, 2001 and Vogt A, Rice RL, Settineri CE, Yokokawa F, Yokokawa S, Wipf P and Lazo JS (1998) Disruption of insulin-like growth factor-I signaling and down-regulation of Cdc2 by SC-ααδ9, a novel small molecule antisignaling agent identified in a targeted array library. J Pharmacol Exptl Therap 287:806-813.). Briefly, the inventors seeded 4,000-6,000 cells per well in microtiter plates. Cells were allowed to attach overnight and treated with vehicle or compounds for 72 h, after which the medium was replaced with serum free medium containing 0.1% 3-[4,5-dimethylthiazol-2-yl]-2,5-diphenyl tetrazolium bromide. Plates were incubated for 3 hours in the dark and total cell number was determined by spectrophotometrically at 540 nm as previously described (Vogt A, Rice RL, Settineri CE, Yokokawa F, Yokokawa S, Wipf P and Lazo JS (1998) Disruption of insulin-like growth factor-1 signaling and down-regulation of Cdc2 by SC-ααδ9, a novel small molecule antisignaling agent identified in a targeted array library. J Pharmacol Exptl Therap 287:806-813.). […] Cells were maintained in RPMI 1640 medium containing 10% fetal bovine serum and the paclitaxel-resistant cells also contained 17 nM paclitaxel and 10 μM verapamil. Cells were plated (2,000/well) in 96-well plates and allowed to attach and grow for 72 hours (paclitaxel and verapamil were removed from resistant cell medium two weeks prior to this plating). They were then treated with 0.5% DMSO vehicle control or 0.08-10 μM compound. The number of cells was determined spectrophotometrically at 490 nm minus absorbance at 630 nm after exposure to 3-(4,5-dimethylthiazol-2-yl)-5-(3-carboxymethoxyphenyl)-2-(4-sulfophenyl)-2H-tetrazolium and N-methyldibenzopyurazine methyl sulfate. […]

[2] = molecular target: T1, TrxR (Homo sapiens, UniProt Q16881); experiment: Thioredoxin reductase (TrxR) DTNB reduction assay; type: biochemical; conditions: calculated from 5 concentrations (0.1 to 50 μM)
T1 construct: Thioredoxin reductase was purified from human placenta as previously described; from tissue; host or cells: human placenta
T1 sequence (Q16881 1-499 isoform Q16881-5): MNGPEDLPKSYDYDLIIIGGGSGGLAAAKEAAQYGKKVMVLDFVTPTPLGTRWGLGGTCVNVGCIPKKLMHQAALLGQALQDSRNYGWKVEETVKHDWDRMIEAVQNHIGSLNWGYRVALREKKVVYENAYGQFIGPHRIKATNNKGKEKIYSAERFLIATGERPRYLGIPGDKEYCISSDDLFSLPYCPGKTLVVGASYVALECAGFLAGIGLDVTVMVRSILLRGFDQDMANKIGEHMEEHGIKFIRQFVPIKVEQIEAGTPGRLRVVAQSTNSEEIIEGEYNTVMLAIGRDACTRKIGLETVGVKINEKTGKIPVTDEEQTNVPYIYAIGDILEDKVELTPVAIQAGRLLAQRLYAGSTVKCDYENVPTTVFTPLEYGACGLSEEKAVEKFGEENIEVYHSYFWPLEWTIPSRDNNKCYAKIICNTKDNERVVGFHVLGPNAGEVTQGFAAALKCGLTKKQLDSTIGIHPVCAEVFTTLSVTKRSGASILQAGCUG
Protocol: Thioredoxin reductase was purified from human placenta as previously described (Oblong, J.E.; Gasdaska, P.Y.; Sherrill, K.; Powis,G. Biochemistry 1993, 32, 7271) and recombinant human Trx-1 was prepared as previously described (Gasdaska, P.Y.; Oblong, J.E.; Cotgreave, I.A.; Powis,G. Biochem.Biophys.Acta 1994 ,1218 ,292). TrxR and Trx-1/TrxR activities were measured spectrophotometrically using previously published microtiter plate colorimetric assays, based on the increase in absorbance at 405 nm which occurs as dithionitrobenzoic acid (DTNB) is reduced by the enzyme-mediated transfer of reducing equivalents from NADPH (Gasdaska et al., Biochem.Biophys.Acta 1994 ,1218,292). Trx-1/TrxR-dependent insulin reducing activity was measured in an incubation with a final volume of 60 μL containing 100 mM HEPES buffer, pH 7.2,5 mM EDTA (HE buffer),1 mM NADPH, […],0.8 μM Trx-1 and 2.5 mg/mL bovine insulin. Incubations were for 30 min at 37 ° C. in flat-bottom 96-well microtiter plates. The reaction was stopped by the addition of 100 μL of 6 M guanidine-HC1, 50 mM Tris, pH 8.0, and 10 mM DTNB, and the absorbance measured to 405 nm. TrxR activity was measured in a final incubation volume of 60 μL containing HE buffer, 10 mM DTNB, 1.0 μM TrxR and 1 mM NADPH. Compounds were diluted in HE buffer and added to the wells as 20 μL aliquots, and TrxR was then added,also as 20 μL aliquots in HE buffer. To start the reaction NADPH and DTNB were added as a 20 μL aliquot in HE buffer and the plate was moved to the plate reader which had been preheated to 37 ° C. The optical density at 405 nm was measured every 10 s and initial reaction rates were measured.

For `O=C1C=CC2(Oc3cccc4cccc(c34)O2)c2cccc(OC/C=C/c3ccccc3)c21` [SR-1, (E)-8-(3-phenyl-allyloxy)-1-oxo-1,4-dihydronaphthalene-4-spiro-2′-naphto[1″, 8″-de] [1′,3′] dioxin], the IC50 ([1]; Homo sapiens, MCF7, 72 h) was 7.9 µM.
In the case of `C/C=C/COc1cccc2c1C(=O)C=CC21Oc2cccc3cccc(c23)O1` [SR-2, (E)-8-(but-2-enyloxy)-1-oxo-1,4-dihydronaphthalene-4-spiro-2′-naphto [1″,8″-de][1′,3′]dioxin], the IC50 ([1]; Homo sapiens, MCF7, 72 h) is reported as 1.3 µM.
In the case of `CCCCCCOc1cccc2c1C(=O)C=CC21Oc2cccc3cccc(c23)O1` [SR-3, 8-hexyloxy-1-oxo-1,4-dihydronaphthalene-4-spiro-2′-naphto [1″,8″-de] [1′,3′] dioxin], the IC50 ([1]; Homo sapiens, MCF7, 72 h) is reported as 13.4 µM.
`COc1cccc(COc2cccc3c2C(=O)C=CC32Oc3cccc4cccc(c34)O2)c1` [SR-5, 8-(3-methoxy-benzyloxy)-1-oxo-1,4-dihydronaphthalene-4-spiro-2′-naphto [1″,8″-de][1′,3′] dioxin] showed an IC50 ([1]; Homo sapiens, MCF7, 72 h) of 2.3 µM.
For `O=C1C=CC2(Oc3cccc4cccc(c34)O2)c2cccc(OCCc3ccccc3)c21` [SR-6, 8-(2-phenyl-ethoxy)-1-oxo-1,4-dihydronaphthalene-4-spiro-2′-naphto [1″,8″-de][1′,3′] dioxin], the IC50 ([1]; Homo sapiens, MCF7, 72 h) was 3.9 µM.
With `O=C1C=CC2(Oc3cccc4cccc(c34)O2)c2cccc(OCc3ccco3)c21` [SR-7, 8-(furan-2-ylmethoxy)-1-oxo-1,4-dihydronaphthalene-4-spiro-2′-naphto [1″,8″-de][1′,3′] dioxin] the IC50 ([1]; 72 hours) was 1.1 µM and the IC50 ([1]; Homo sapiens, MCF7, 72 h) was 1 to 2 µM.
Molecule `CC(C)=CCC/C(C)=C/COc1cccc2c1C(=O)C=CC21Oc2cccc3cccc(c23)O1` [SR-9, (E,E)-8-(3,7-diemthyl-octa-2,6-dienyloxy)-1-oxo-1,4-dihydronaphthalene-4-spiro-2′-naphtol [1″,8″-de][1′,3′] dioxin] has an IC50 ([1]; Homo sapiens, MCF7, 72 h) of 4.6 µM.
In the case of `O=C1C=CC2(Oc3cccc4cccc(c34)O2)c2cccc(OCc3ccoc3)c21` [SR-10, 8-(furan-3-ylmethoxy)-1-oxo-1,4-dihydronaphthalene-4-spiro-2′-naphto [1′,8′-de][1′,3′] dioxin], the IC50 [2] is reported as > 50 µM and the IC50 ([1]; Homo sapiens, MCF7, 72 h) is reported as 2 µM.
In the case of `O=C1C=CC2(Oc3cccc4cccc(c34)O2)c2cccc(OCc3ccccn3)c21` [SR-11, 8-(pyridin-2-ylmethoxy)-1-oxo-1,4-dihydronaphthalene-4-spiro-2′-naphto [1″,8″-de][1′,3′] dioxin], the IC50 [2] is reported as > 50 µM and the IC50 ([1]; Homo sapiens, MCF7, 72 h) is reported as 2 µM.
`O=C1C=CC2(Oc3cccc4cccc(c34)O2)c2cccc(OCc3cccnc3)c21` [SR-12, 8-(pyridin-3-ylmethoxy)-1-oxo-1,4-dihydronaphthalene-4-spiro-2′-naphto [1″,8″-de][1′,3′] dioxin] was tested, and the IC50 [2] was > 50 µM and the IC50 ([1]; Homo sapiens, MCF7, 72 h) was 1.5 µM.
For `O=C1C=CC2(Oc3cccc4cccc(c34)O2)c2cccc(OCc3ccncc3)c21` [SR-13, 8-(pyridin-4-ylmethoxy)-1-oxo-1,4-dihydronaphthalene-4-spiro-2′-naphtol [1″,8″-de][1′,3′] dioxin], the IC50 [2] was > 50 µM and the IC50 ([1]; Homo sapiens, MCF7, 72 h) was 8 µM.
For `C=CCOc1cccc2c1C(=O)C=CC21Oc2cccc3cccc(c23)O1` [SR-14, 8-allyloxy-1-oxo-1,4-dihydronaphthalene-4-spiro-2′-naphto [1″,8″-de][1′,3′] dioxin], the IC50 [2] was > 50 µM and the IC50 ([1]; Homo sapiens, MCF7, 72 h) was 2 µM.
For `COc1ccc(COc2cccc3c2C(=O)C=CC32Oc3cccc4cccc(c34)O2)cc1` [TH-39, 8-(4-methoxy-benzyloxy)-1-oxo-1,4-dihydronaphthalene4-spiro-2-naphto [1,8-de][1, 3]dioxin], the IC50 [2] was > 50 µM and the IC50 ([1]; Homo sapiens, MCF7, 72 h) was 0.7 µM.
`O=C1C=CC2(OCCO2)c2cccc(O)c21` [TH-169] showed an IC50 [2] of 8.8 µM and an IC50 ([1]; Homo sapiens, MCF7, 72 h) of 4.2 µM.
For `COc1cccc2c1C(=O)C=CC21OCCCO1` [TH-223], the IC50 [2] was > 50 µM and the IC50 ([1]; 72 hours) was 4.4 µM.
With `O=C1C=CC2(Oc3cccc4cccc(c34)O2)c2cccc(O)c21` [palmarumycin CP1, 8-hydroxy-1-oxo-1,4-dihydronaphthalene-4-spiro-2′-naphtho[1″,8″-de] [1′,3′] dioxin, reference compound] the IC50 [2] was 12 µM, the IC50 ([1]; 72 hours) was 1 µM and the IC50 ([1]; Homo sapiens, MCF7, 72 h) was 1 to 2 µM.
